Measurements as given in the NIST ThermoML archive (doi:10.1021/je0502142).

Legend:
[1] = Liquid; for mass density / speed of sound: 298.15 K; for mass density: 101.33 kPa, Vibrating tube method; for speed of sound: Sing-around technique in a fixed-path interferometer
[2] = refractive index (Na D-line) (dimensionless); conditions: 298.15 K; 101.33 kPa; Liquid; Standard Abbe refractometry
[3] = xn = mol fraction of the nth substance listed; conditions: 298.15 K, 101.3 kPa, Liquid; for speed of sound: Sing-around technique in a fixed-path interferometer
[4] = refractive index (Na D-line) (dimensionless); xn = mol fraction of the nth substance listed; conditions: 298.15 K, 101.3 kPa, Liquid, Standard Abbe refractometry

CCC(C)CO (stereo unspecified) [2-methyl-1-butanol]
Conditions	mass density [kg/m3]	refractive index	speed of sound [m/s]
[1]	814.87	–	1253.3
[2]	–	1.40872	–

Conditions	vapor or sublimation pressure [kPa]
[1], 401.93 K	101.3

CCC(C)CO (stereo unspecified) [2-methyl-1-butanol] + CCCO
Conditions	mass density, [3] [kg/m3]	refractive index, [4]	speed of sound, [3] [m/s]
x2 = 0.051	814.37	1.40768	1252.4
x2 = 0.1	813.84	1.40677	1250.6
x2 = 0.151	813.28	1.40573	1248.7
x2 = 0.2	812.71	1.40478	1246.8
x2 = 0.251	812.09	1.4038	1244.7
x2 = 0.3	811.46	1.40272	1242.8
x2 = 0.351	810.8	1.40164	1240.5
x2 = 0.408	810.04	1.40039	1238
x2 = 0.45	809.44	1.39934	1236.1
x2 = 0.501	808.69	1.39815	1233.7
x2 = 0.55	807.94	1.39697	1231.3
x2 = 0.6	807.14	1.39556	1228.8
x2 = 0.65	806.3	1.39422	1226.2
x2 = 0.7	805.38	1.39279	1223.2
x2 = 0.75	804.5	1.39133	1220.7
x2 = 0.801	803.53	1.38982	1217.6
x2 = 0.85	802.6	1.38815	1214.8
x2 = 0.899	801.61	1.38658	1211.8
x2 = 0.949	800.64	1.38483	1208.7

CC(C)CCO [3-methylbutan-1-ol]
Conditions	mass density [kg/m3]	refractive index	speed of sound [m/s]
[1]	806.78	–	1238.8
[2]	–	1.40515	–

Conditions	vapor or sublimation pressure [kPa]
[1], 404.27 K	101.3

CC(C)CCO [3-methylbutan-1-ol] + CCCO
Conditions	mass density, [3] [kg/m3]	refractive index, [4]	speed of sound, [3] [m/s]
x2 = 0.05	806.4	1.40447	1234.4
x2 = 0.1	806.12	1.40366	1233.5
x2 = 0.15	805.83	1.40281	1232.3
x2 = 0.201	805.54	1.402	1231.1
x2 = 0.251	805.25	1.40115	1230
x2 = 0.3	804.97	1.4002	1228.8
x2 = 0.351	804.66	1.39919	1227.5
x2 = 0.4	804.37	1.3983	1226.2
x2 = 0.45	804.07	1.39734	1224.9
x2 = 0.5	803.75	1.39621	1223.4
x2 = 0.551	803.41	1.39507	1222
x2 = 0.6	803.08	1.39396	1220
x2 = 0.65	802.72	1.39278	1218.5
x2 = 0.7	802.34	1.39148	1217
x2 = 0.749	801.96	1.39035	1215.3
x2 = 0.799	801.55	1.38898	1213.6
x2 = 0.85	801.13	1.38757	1211.8
x2 = 0.9	800.69	1.3861	1210
x2 = 0.95	800.22	1.38458	1208.2

CCCO [propan-1-ol]
Conditions	mass density [kg/m3]	refractive index	speed of sound [m/s]
[1]	799.75	–	1205.7
[2]	–	1.38304	–

Conditions	vapor or sublimation pressure [kPa]
[1], 370.29 K	101.3
